In PMC9488889, “Insight into mode-of-action and structural determinants of the compstatin family of clinical complement inhibitors” (Nature Communications, 2022):
Read-outs that look alike come from different tables or passages of the source. Bridge positions count the residues as written; N and C are the ends. Square brackets hold non-standard residues; d marks the D form. Peptide text beside a SMILES is read from it. Trp(1-Me) = Cn1cc(C[C@H](N)C(=O)O)c2ccccc21; NMeI = CC[C@H](C)[C@H](NC)C(=O)O; Sar = CNCC(=O)O

Target: T1, C3b (Homo sapiens, UniProt P01024)
T1 construct: the α’NT, MG6^α−8, anchor, and C-terminal complement (CTC) domains of the α-chain that are all shared between C3c and C3b; purchased Complement Technology (Tyler, TX, USA)
T1 sequence (P01024 23-667 limits assumed): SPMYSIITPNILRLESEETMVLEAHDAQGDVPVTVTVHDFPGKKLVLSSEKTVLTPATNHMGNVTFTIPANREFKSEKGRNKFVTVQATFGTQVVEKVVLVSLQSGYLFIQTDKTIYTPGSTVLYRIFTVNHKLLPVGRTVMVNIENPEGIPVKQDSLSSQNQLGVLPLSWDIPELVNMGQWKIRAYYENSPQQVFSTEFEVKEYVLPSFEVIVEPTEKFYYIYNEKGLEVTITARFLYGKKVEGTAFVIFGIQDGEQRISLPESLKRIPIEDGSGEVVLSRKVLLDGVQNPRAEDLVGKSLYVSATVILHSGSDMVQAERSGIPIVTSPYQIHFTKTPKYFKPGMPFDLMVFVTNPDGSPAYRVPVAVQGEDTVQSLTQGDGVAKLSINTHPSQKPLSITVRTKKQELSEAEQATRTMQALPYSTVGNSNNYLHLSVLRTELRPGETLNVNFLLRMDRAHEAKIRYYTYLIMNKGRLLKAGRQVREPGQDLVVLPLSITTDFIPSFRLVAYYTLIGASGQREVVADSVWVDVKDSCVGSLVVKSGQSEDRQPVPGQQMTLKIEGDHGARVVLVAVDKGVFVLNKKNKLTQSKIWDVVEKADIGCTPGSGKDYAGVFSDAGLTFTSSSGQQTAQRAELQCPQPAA
T1 sequence (P01024 749-1663 limits assumed): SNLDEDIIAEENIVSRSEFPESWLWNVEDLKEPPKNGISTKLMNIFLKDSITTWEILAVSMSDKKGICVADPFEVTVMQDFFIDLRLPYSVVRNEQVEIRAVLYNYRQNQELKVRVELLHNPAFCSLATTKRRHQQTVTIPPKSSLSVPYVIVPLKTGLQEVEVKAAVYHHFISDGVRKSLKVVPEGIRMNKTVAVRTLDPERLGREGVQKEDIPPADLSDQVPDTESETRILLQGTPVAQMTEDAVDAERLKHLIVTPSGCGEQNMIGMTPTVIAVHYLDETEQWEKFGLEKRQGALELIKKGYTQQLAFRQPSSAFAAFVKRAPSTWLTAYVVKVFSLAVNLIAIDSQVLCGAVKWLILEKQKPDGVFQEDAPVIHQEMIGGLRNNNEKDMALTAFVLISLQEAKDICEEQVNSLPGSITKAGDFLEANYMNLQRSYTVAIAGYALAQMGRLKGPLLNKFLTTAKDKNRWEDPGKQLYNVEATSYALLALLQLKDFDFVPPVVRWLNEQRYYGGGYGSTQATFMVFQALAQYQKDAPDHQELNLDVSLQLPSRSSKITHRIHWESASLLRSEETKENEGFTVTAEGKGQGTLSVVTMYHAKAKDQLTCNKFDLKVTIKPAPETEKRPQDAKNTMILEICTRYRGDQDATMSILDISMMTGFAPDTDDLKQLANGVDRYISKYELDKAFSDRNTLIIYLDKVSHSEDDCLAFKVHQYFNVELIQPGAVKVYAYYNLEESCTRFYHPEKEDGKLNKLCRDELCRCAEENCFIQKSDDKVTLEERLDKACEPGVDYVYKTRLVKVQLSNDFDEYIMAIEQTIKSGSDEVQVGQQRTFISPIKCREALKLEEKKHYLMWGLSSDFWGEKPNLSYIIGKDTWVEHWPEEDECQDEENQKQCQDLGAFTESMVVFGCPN
Assay: SPR kinetic binding studies on immobilized C3b
Description: All compstatin analogues were characterized concerning affinity and kinetic profiles by surface plasmon resonance (SPR) using a Biacore T200 instrument (Cytiva, Piscataway, USA). Experiments were run at 25 °C in HBST buffer (10 mM HEPES, 150 mM NaCl, 0.05% Tween-20, pH 7.4). C3b was immobilized on a carboxymethyl dextran hydrogel chip (CMD200; XanTec, Düsseldorf, Germany) using standard amine coupling in sodium acetate buffer pH 4.5 at a flow rate of 10 µl/min. Immobilization densities of 8000 and 4000 resonance units (RU) were achieved on separate flow cells. A reference flow cell was activated with the same method (NHS/EDC). All active sites were inactivated and blocked with ethanolamine. A single cycle approach at a flow rate of 30 µl/min was used for kinetic analysis by injecting five increasing concentrations of each compound (0.5–40 nM) consecutively without regeneration in-between injections. Individual injections within a cycle were 120 s long with a 60 sec dissociation phase between injections. After the highest concentration of each derivative, a dissociation period of 6,000–14,400 sec was added to ensure complete dissociation in absence of suitable regeneration method. […] Signals from the reference cell from an ensemble of buffer blank injections were subtracted to correct for buffer effects and injection artefacts. Kinetic data was processed with the Biacore T200 Software (version 3.1; Cytiva) using a single-cycle evaluation setup by global fitting each data set to a 1:1 Langmuir binding model. Association and dissociation rate constants (ka and kd, respectively) were fitted, and the equilibration constant KD was calculated based on the following equation: KD = kd/ka. Each assay was performed at least twice and in duplicate injections.

[1] = Table 1, amine-reactive immobilized C3b, 25 °C, average±SD of three independent SPR experiments, read-out: KD
[2] = pH 7.4, read-out: ka, Dataset 1
[3] = pH 7.4, read-out: ka, Dataset 2
[4] = pH 7.4, read-out: ka, Dataset 3
[5] = source data of Table 1, single SPR dataset 1, read-out: KD, Dataset 1
[6] = source data of Table 1, single SPR dataset 2, read-out: KD, Dataset 2
[7] = source data of Table 1, single SPR dataset 3, read-out: KD, Dataset 3

CC[C@H](C)[C@H](NC(=O)[C@H](N)Cc1ccc(O)cc1)C(=O)N[C@H]1CSSC[C@@H](C(=O)N(C)[C@H](C(N)=O)[C@@H](C)CC)NC(=O)[C@H](CCCNC(=N)N)NC(=O)[C@H](Cc2c[nH]cn2)NC(=O)[C@H](C)NC(=O)CNC(=O)[C@H](Cc2c[nH]c3ccccc23)NC(=O)[C@H](CC(=O)O)NC(=O)[C@H](CCC(N)=O)NC(=O)[C@H](Cc2cn(C)c3ccccc23)NC(=O)[C@H](C(C)C)NC1=O [Cp40 Sar9G]
Kd [1]: 1.7 ± 0.7 nM | kon (pH 7.4, read-out: ka): 900000 ± 400000 M⁻¹ s⁻¹ | kon [2]: 1.29e+06 M⁻¹ s⁻¹ | kon [3]: 1.1e+06 M⁻¹ s⁻¹ | kon [4]: 360000 M⁻¹ s⁻¹ | Kd [5]: 0.92 nM | Kd [6]: 1.39 nM | Kd [7]: 2.63 nM

CC[C@H](C)[C@H](NC(=O)[C@H](N)Cc1ccc(O)cc1)C(=O)N[C@H]1CSSC[C@@H](C(=O)N(C)[C@H](C(N)=O)[C@@H](C)CC)NC(=O)[C@H](CCCNC(=N)N)NC(=O)[C@H](Cc2c[nH]cn2)NC(=O)[C@H](C)NC(=O)CN(C)C(=O)[C@H](Cc2c[nH]c3ccccc23)NC(=O)[C@H](CC(=O)O)NC(=O)[C@H](CCC(N)=O)NC(=O)[C@H](Cc2c[nH]c3ccccc23)NC(=O)[C@H](C(C)C)NC1=O [Cp40 (1MeW)5 W]
kon (pH 7.4, read-out: ka): 200000 M⁻¹ s⁻¹ | kon [2]: 130000 M⁻¹ s⁻¹ | kon [3]: 150000 M⁻¹ s⁻¹ | kon [4]: 180000 M⁻¹ s⁻¹

CC[C@H](C)[C@H](NC(=O)[C@H](N)Cc1ccc(O)cc1)C(=O)N[C@H]1CSSC[C@@H](C(N)=O)NC(=O)[C@H](CCCNC(=N)N)NC(=O)[C@H](Cc2c[nH]cn2)NC(=O)[C@H](C)NC(=O)CN(C)C(=O)[C@H](Cc2c[nH]c3ccccc23)NC(=O)[C@H](CC(=O)O)NC(=O)[C@H](CCC(N)=O)NC(=O)[C@H](Cc2cn(C)c3ccccc23)NC(=O)[C@H](C(C)C)NC1=O [Cp40 ΔmI14] (H-[dY]ICV[Trp(1-Me)]QDW[Sar]AHRC-NH2; disulfide 3-13)
kon (pH 7.4, read-out: ka): 1.5e+06 ± 200000 M⁻¹ s⁻¹ | kon [2]: 1.41e+06 M⁻¹ s⁻¹ | kon [3]: 1.28e+06 M⁻¹ s⁻¹ | kon [4]: 1.8e+06 M⁻¹ s⁻¹

CC[C@H](C)[C@H](NC(=O)[C@H](N)Cc1ccc(O)cc1)C(=O)N[C@H]1CSSC[C@@H](C(=O)N(C)[C@H](C(N)=O)[C@@H](C)CC)NC(=O)[C@H](CCCCN)NC(=O)[C@H](Cc2c[nH]cn2)NC(=O)[C@H](C)NC(=O)CN(C)C(=O)[C@H](Cc2c[nH]c3ccccc23)NC(=O)[C@H](CC(=O)O)NC(=O)[C@H](CCC(N)=O)NC(=O)[C@H](Cc2cn(C)c3ccccc23)NC(=O)[C@H](C(C)C)NC1=O [Cp40 R12K] (H-[dY]ICV[Trp(1-Me)]QDW[Sar]AHKC[NMeI]-NH2; disulfide 3-13)
kon [2]: 630000 M⁻¹ s⁻¹ | kon [3]: 470000 M⁻¹ s⁻¹ | kon [4]: 780000 M⁻¹ s⁻¹

CC[C@H](C)[C@H](NC(=O)[C@@H](C)N)C(=O)N[C@H]1CSSC[C@@H](C(=O)N(C)[C@H](C(N)=O)[C@@H](C)CC)NC(=O)[C@H](CCCNC(=N)N)NC(=O)[C@H](Cc2c[nH]cn2)NC(=O)[C@H](C)NC(=O)CN(C)C(=O)[C@H](Cc2c[nH]c3ccccc23)NC(=O)[C@H](CC(=O)O)NC(=O)[C@H](CCC(N)=O)NC(=O)[C@H](Cc2cn(C)c3ccccc23)NC(=O)[C@H](C(C)C)NC1=O [Cp40 y1a]
kd (Table 1, amine-reactive immobilized C3b, 25 °C, average±SD of three independent SPR experiments): 2.3 ± 0.4 10^−3 s^−1 | Kd [1]: 2.9 ± 0.6 nM | kon (pH 7.4, read-out: ka): 800000 ± 100000 M⁻¹ s⁻¹ | kon [2]: 840000 M⁻¹ s⁻¹ | kon [3]: 920000 M⁻¹ s⁻¹ | kon [4]: 650000 M⁻¹ s⁻¹ | kd, Dataset 1 (source data of Table 1, single SPR dataset 1): 1.85 10-3 s-1 | Kd [5]: 2.19 nM | kd, Dataset 2 (source data of Table 1, single SPR dataset 2): 2.77 10-3 s-1 | Kd [6]: 2.99 nM | kd, Dataset 3 (source data of Table 1, single SPR dataset 3): 2.36 10-3 s-1 | Kd [7]: 3.63 nM
